# US4276412A, “3-Trehalosamine compounds” (The Upjohn Company, priority 1979, dated 1981)
# Key:
# S. faecalis UC 694 = test: Minimal Inhibitory Concentration; assay type: cell-based; settings: Enterococcus faecalis, UC694
# [1] = tested on: various Gram-positive and Gram-negative bacteria; test: antibacterial activity (in words); assay type: cell-based; settings: disc assay
# Protocol: (§1) The testing was done on a standard microbiological disc assay system using 0.1 ml per 12.7 mm disc.
# S. aureus UC 76 = test: Minimal Inhibitory Concentration; assay type: cell-based; settings: Staphylococcus aureus, UC76
# stability at various pH = assay type: physicochemical; settings: any pH from about 1 to about 11
# E. coli UC 45 = test: Minimal Inhibitory Concentration; assay type: cell-based; settings: Escherichia coli, UC45
# S. pyogenes UC 152 = test: Minimal Inhibitory Concentration; assay type: cell-based; settings: Streptococcus pyogenes, UC152
# P. mirabilis UC 6671 = test: Minimal Inhibitory Concentration; assay type: cell-based; settings: Proteus mirabilis, UC6671
# B. subtilis (UC 564) = test: biounit assay against B. subtilis (paper disc, zone of growth inhibition); assay type: cell-based; settings: IR-45 (OH--) column fractions after lyophilization; 12.7 mm disc, 0.08 ml, 32° C., ca 18 hours
# Protocol: The active fractions during the recovery and purification process are determined by assay against the microorganism Bacillus subtilis. The assay procedure is as follows:
# 5.0 mls culture are centrifuged (4000×g, 10'). Serial dilutions of the supernatant solution are performed in 0.1 M phosphate buffer, pH 7.7. […] The trays are incubated at 32° C. for ca 18 hours and the zone of growth inhibition recorded.
# The designation BU, used herein, means biounit. A biounit is defined as the concentration of the antibiotic which gives a 20 mm zone of inhibition.
# Ps. aeruginosa UC 95 = test: Minimal Inhibitory Concentration; assay type: cell-based; settings: Pseudomonas aeruginosa, UC95
# S. flexneri UC 143 = test: Minimal Inhibitory Concentration; assay type: cell-based; settings: Shigella flexneri, UC143
# B. subtilis = test: antibacterial activity (in words); assay type: cell-based
# S. schottmuelleri UC 126 = test: Minimal Inhibitory Concentration; assay type: cell-based
# Staphylococcus aureus = test: antibacterial activity (in words); assay type: cell-based
# S. typhi UC 215 = test: Minimal Inhibitory Concentration; assay type: cell-based; settings: Salmonella enterica, read-out: Minimal Inhibitory Concentration
# K. pneumoniae UC 58 = test: Minimal Inhibitory Concentration; assay type: cell-based; settings: Klebsiella pneumoniae, UC58
# Solubilities = assay type: physicochemical
# Bacillus subtilis UC 564 = test: standard microbiological disc assay, zone size; assay type: cell-based; settings: 0.1 ml per 12.7 mm disc
# Protocol: as §1
# [2] = tested on: Bacillus subtilis UC 6033; test: standard microbiological disc assay, zone size; assay type: cell-based; settings: 0.1 ml per 12.7 mm disc
# Protocol: as §1
# Proteus vulgaris UC 93 = test: standard microbiological disc assay, zone size; assay type: cell-based; settings: 0.1 ml per 12.7 mm disc
# Protocol: as §1
# [3] = tested on: Staphylococcus aureus UC 80; test: standard microbiological disc assay, zone size; assay type: cell-based; settings: 0.1 ml per 12.7 mm disc
# Protocol: as §1
# [4] = tested on: Staphylococcus aureus UC 3665; test: standard microbiological disc assay, zone size; assay type: cell-based; settings: 0.1 ml per 12.7 mm disc
# Protocol: as §1
# Escherichia coli UC 51 = test: standard microbiological disc assay, zone size; assay type: cell-based; settings: 0.1 ml per 12.7 mm disc
# Protocol: as §1
# [5] = tested on: Pseudomonas aeruginosa UC 95; test: standard microbiological disc assay, zone size; assay type: cell-based; settings: 0.1 ml per 12.7 mm disc
# Protocol: as §1
# [6] = tested on: Klebsiella pneumoniae UC 57; test: standard microbiological disc assay, zone size; assay type: cell-based; settings: 0.1 ml per 12.7 mm disc
# Protocol: as §1
# Sarcina lutea UC 130 = test: standard microbiological disc assay, zone size; assay type: cell-based; settings: 0.1 ml per 12.7 mm disc
# Protocol: as §1
# S. marcescens UC 131 = test: Minimal Inhibitory Concentration; assay type: cell-based; settings: Serratia marcescens, UC131
# P. vulgaris UC 93 = test: Minimal Inhibitory Concentration; assay type: cell-based; settings: Proteus vulgaris, UC93
# D. pneumoniae UC 41 = test: Minimal Inhibitory Concentration; assay type: cell-based; settings: Streptococcus pneumoniae, UC41
smiles,measurement,setting,value
N[C@@H]1[C@@H](O)[C@@H](O[C@H]2O[C@H](CO)[C@@H](O)[C@H](O)[C@H]2O)O[C@H](CO)[C@H]1O [3-Trehalosamine],MIC,S. faecalis UC 694,> 1000 µg/mL
same,antibacterial activity,[1],active against various Gram-positive and Gram-negative bacteria
same,MIC,S. aureus UC 76,> 1000 µg/mL
same,stability,stability at various pH,stable
same,MIC,E. coli UC 45,> 1000 µg/mL
same,MIC,S. pyogenes UC 152,1000 µg/mL
same,MIC,P. mirabilis UC 6671,> 1000 µg/mL
same,potency vs Bs (biounits; BU = concentration giving a 20 mm zone of inhibition),B. subtilis (UC 564),80 BU/mg
same,MIC,Ps. aeruginosa UC 95,> 1000 µg/mL
same,MIC,S. flexneri UC 143,> 1000 µg/mL
same,antibacterial activity,B. subtilis,active against B. subtilis
same,MIC,S. schottmuelleri UC 126,> 1000 µg/mL
same,antibacterial activity,Staphylococcus aureus,active against Staphylococcus aureus
same,MIC,S. typhi UC 215,> 1000 µg/mL
same,MIC,K. pneumoniae UC 58,> 1000 µg/mL
same,solubility,Solubilities; any pH from about 1 to about 11,soluble
same,solubility,"Solubilities; water, dilute acid, dilute base","soluble in water, dilute acid and dilute base"
same,Zone Size,Bacillus subtilis UC 564,36.5 mm
same,Zone Size,[2],24 mm
same,Zone Size,Proteus vulgaris UC 93,0 mm
same,Zone Size,[3],32 mm
same,Zone Size,[4],30 mm
same,Zone Size,Escherichia coli UC 51,0 mm
same,Zone Size,[5],0 mm
same,Zone Size,[6],0 mm
same,Zone Size,Sarcina lutea UC 130,0 mm
same,MIC,S. marcescens UC 131,> 1000 µg/mL
same,MIC,P. vulgaris UC 93,> 1000 µg/mL
same,MIC,D. pneumoniae UC 41,62.5 µg/mL
